SMILES strings stand for the structures.

One series relates to antibody to FK778. Nature of the series: Interference of prescription drugs in the […] FK778 competitive chemiluminescent immunoassay. The series is classed as binding. Here is the method:
FK778 assays were performed by an […]® instrument, commercially available from Abbott Laboratories, Abbott Park, Ill., according to the following procedure. See also U.S. Pat. Nos. 5,795,784 and 5,856,194, both of which are incorporated herein by reference. A serum sample (10 μL) was diluted with Line Diluent at a ratio of 1 part sample to 20 parts Line Diluent. A portion of the diluted sample (10 μL) was mixed with 90 μL of Conjugate Reagent and 50 μL of Line Diluent. Magnetic Microparticle Reagent (50 μL) and Bihapten Tracer Reagent (50 μL) were added to the foregoing mixture after a period of six (6) seconds. The resulting mixture (250 μL) was incubated for 25 minutes. The microparticles were washed three (3) times with 1 mL of Line Diluent. The magnetic particles were attracted to a magnet at the same time that they were being washed. The washed microparticles were treated with Pretrigger Reagent (100 μL acidic hydrogen peroxide). Finally, the chemiluminescent reaction was triggered by addition of Trigger Reagent (alkaline detergent solution (300 μL)). Measurement of light generated was carried out by means of a photomultiplier tube.
This example illustrates interference with prescription drugs. Interference was tested for 44 of 45 prescription drugs at levels recommended in NCCLS document EP-7P. Interference was tested in the presence of FK778 and absence of FK778 in the sample. Interference was defined as greater than 5 μg/mL (without FK778) or greater than 10% (with FK778). […] Both interferences were expected; fluorescein because of its competition with the FK778-fluorescein bihapten tracer and A77,1726 because of its similarity in structure to FK778.
Fluorescein is used in in vivo diagnostic procedures to measure blood flow in the eye and is not expected to be present in patients undergoing a transplant. 10 Nevertheless, fluorescein was tested more thoroughly to estimate the magnitude of the interference at concentrations lower than 400 μg/mL.
Additional testing was also carried out with A77, 1726 to assess the cross-reactivity of this molecule in the presence and absence of FK778.

The conditions of series [1]: humans; cited from earlier work.

On to `C/C(O)=C(\C#N)C(=O)Nc1ccc(C(F)(F)F)cc1` [A77 1726], for which the “% Cross-reactivity A77,1726” value is on record as 13% in the series with antibody to FK778 (A77,1726 50 μg/mL, High FK778); 43% in the series on antibody to FK778 (A77,1726 50 μg/mL, Low FK778); 24% with antibody to FK778 (A77,1726 50 μg/mL, Med FK778); 23% in the series on antibody to FK778 (A77,1726 100 μg/mL, High FK778); 42% with antibody to FK778 (A77,1726 100 μg/mL, Low FK778); 31% with antibody to FK778 (A77,1726 100 μg/mL, Med FK778). The “% Cross-reactivity A77,1726” value in the series with antibody to FK778 (A77,1726 200 μg/mL, High FK778) stood at 34%; with antibody to FK778 (A77,1726 200 μg/mL, Low FK778), 42%; in the series with antibody to FK778 (A77,1726 200 μg/mL, Med FK778), 37%; with antibody to FK778 (A77,1726 200 μg/mL, Zero FK778), 47%. Further, the “A77,1726 measured as FK778” value with antibody to FK778 (A77,1726 50 μg/mL, High FK778) came out at 152.9 µg/mL; in the series with antibody to FK778 (A77,1726 50 μg/mL, Low FK778), 42.3 µg/mL; with antibody to FK778 (A77,1726 50 μg/mL, Med FK778), 85 µg/mL; in the series with antibody to FK778 (A77,1726 100 μg/mL, High FK778), 170.1 µg/mL; with antibody to FK778 (A77,1726 100 μg/mL, Low FK778) it was 62.6 µg/mL; with antibody to FK778 (A77,1726 100 μg/mL, Med FK778), 103.4 µg/mL. Further, the “A77,1726 measured as FK778” value in the series on antibody to FK778 (A77,1726 200 μg/mL, High FK778) was found to be 209.3 µg/mL; with antibody to FK778 (A77,1726 200 μg/mL, Low FK778) it was 104.8 µg/mL; in the series with antibody to FK778 (A77,1726 200 μg/mL, Med FK778) it was 145.5 µg/mL; with antibody to FK778 (A77,1726 200 μg/mL, Zero FK778), 94.9 µg/mL. Further, in the series on antibody to FK778 (defined as greater than 5 μg/mL (without FK778) or greater than 10% (with FK778)), the Interference result is listed as “Interference was observed”. Also, the plasma half-life in series [1] is 15 to 18 days.

As for `C#CCC/C(O)=C(\C#N)C(=O)Nc1ccc(C(F)(F)F)cc1` [FK778], in series [1], the “plasma half-life compared with A77 1726” value is given as “shorter”.
